From patent US20120171531A1, “REDOX FLOW BATTERY” (Samsung Electronics Co., Ltd., priority 2010, published 2012)

Experiment: Viscosity of prepared electrolyte solution, Rheometer (AR2000)
Type: physicochemical
Settings: solvent PC
Protocol: The solubilities of each metal-ligand coordination compound obtained in Preparation Examples 1 through 3 in solvents and viscosity of prepared electrolyte solutions were measured and the results are shown in Table 1. Viscosities were measured using a Rheometer (AR2000).

| SMILES | Viscosity (cps) |
| --- | --- |
| F[B-](F)(F)F.F[B-](F)(F)F.[Ni+2].c1ccc(-c2ccccn2)nc1.c1ccc(-c2ccccn2)nc1.c1ccc(-c2ccccn2)nc1 [Preparation Example 2, Ni^2+—(bpy)3 [BF4]2] | 4.9 cps |
| F[B-](F)(F)F.F[B-](F)(F)F.[Fe+2].c1ccc(-c2ccccn2)nc1.c1ccc(-c2ccccn2)nc1.c1ccc(-c2ccccn2)nc1 [Preparation Example 1, Fe^2+—(bpy)3 [BF4]2] | 4.8 cps |
